# Measurements taken from US20190270778A1, “Cyclic Peptides As C5a Receptor Antagonists” (priority 2016, published 2019).
# Where two headings read alike, the source gives them in different places.
# Assays:
# C5a receptor [1] = target: T1, C5a receptor (Homo sapiens, UniProt P21730); assay: HWB oxidative burst assay (C5a-induced, luminol chemiluminescence); type: cell-based
# T1 construct: endogenous in cells; host or cells: leukocytes/granulocytes in freshly drawn whole blood of healthy volunteers
# T1 sequence (P21730 1-350): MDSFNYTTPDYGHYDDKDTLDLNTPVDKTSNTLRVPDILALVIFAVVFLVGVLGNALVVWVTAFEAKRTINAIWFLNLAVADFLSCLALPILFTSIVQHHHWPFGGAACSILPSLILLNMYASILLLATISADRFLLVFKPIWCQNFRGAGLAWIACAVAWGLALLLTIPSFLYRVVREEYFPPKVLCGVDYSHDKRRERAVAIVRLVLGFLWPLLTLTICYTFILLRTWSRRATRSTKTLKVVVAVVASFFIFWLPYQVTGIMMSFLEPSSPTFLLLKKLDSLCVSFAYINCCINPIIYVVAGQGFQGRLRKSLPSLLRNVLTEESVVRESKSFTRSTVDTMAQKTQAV
# Method: Inhibition of oxidative burst activity was determined in HWB primed with TNF-α and stimulated with C5a. C5a-induced oxidative burst response (generation of reactive oxygen species) was then detected in the presence of luminol as a chemiluminescent signal.
# On the day of assay, HWB was collected from a healthy, non-medicated volunteer into tubes containing 3.8% sodium citrate (final sodium citrate concentration in HWB is 0.38%) and stored in a 37° C. water bath until use (no longer than 60 minutes).
# To start the assay, TNF-α was added to HWB to a final concentration of 1.0 nM and 68 μL of this HWB/TNF-α mix was transferred to each well of a 384-well white Optiplate (assay plate). 4.0 μL of various concentrations of test agent were then added to the assay plate and mixed twice gently by aspirating up and down. The assay plate was then placed on a thermoshaker (JITTERBUG-4) and incubated at 37° C. (without shaking). After 60 minutes, C5a (Complement Technology) prepared in luminol (Sigma) was added to the assay plate and mixed twice gently by aspirating up and down. The plate was then placed in a ViewLux 1430 Microplate Imager (Perkin Elmer). After 5 minutes, oxidative burst activity was determined with the ViewLux by measuring luminol-enhanced whole blood chemiluminescence. Final assay conditions were 1.5 mM HEPES pH 7.5, 0.015% BSA, 15% HBSS, 0.85 ng/mL TNFα, 1.0 mM Luminol, C5a 20 nM, 76.5% HWB, 0.15% DMSO and various concentrations of test agent.
# The percent (%) effect at each concentration of test agent was then calculated based on and relative to the amount of signal that was produced by positive (i.e. full inhibition of C5a induced oxidative burst) and negative (i.e. completely uninhibited C5a induced oxidative burst) control wells contained within each assay plate. The concentration and % effect values for test agents were plotted and the concentration of test agent required for 50% effect (IC50) was determined with a four-parameter logistic dose response equation (BioBook; IDBS). Kb (nM) was then calculated (BioBook; IDBS) using the equation described by Leff and Dougal (TIPS 1993 14:110-112).
# C5a receptor [2] = target: T1, C5a receptor; assay: HWB CD11b expression assay (C5a-challenged granulocytes, flow cytometry); type: cell-based
# Method: HWB was collected from healthy, non-medicated volunteers into BD Vacutainer® blood collection tubes with K2EDTA as an anticoagulant. HWB was aliquoted (85 μL/well) in 96-well, deep-well, V-bottom plates and incubated at 37° C. for 30 minutes. Test compounds (5 μL/well) were added to HWB and incubated at 37° C. for 30 minutes. Anti-human CD11b antibody conjugated with APC (BD Biosciences) was added to HWB (5 μL/well) and incubated at 37° C. for additional 30 minutes. HWB was then challenged with human C5a (final 1 nM) for 30 minutes at 37° C. Samples were treated with warm 1× Lyse/Fix buffer (BD Biosciences) to terminate activation and further incubated at 37° C. for 20 minutes to lyse red blood cells. Assay plates were centrifuged at 300×g for 5 minutes, supernatant was aspirated, and cells were washed once with PBS containing 0.5% FBS. Washed cells were resuspended in PBS containing 0.5% FBS and subjected to flow cytometric analysis using an LSRFortessa equipped with a HTS plate loader (BD Biosciences). The granulocyte population was gated for analysis of MF of CD11b staining using FACSDiva version 6.2 (BD Biosciences). Data from 11 compound concentrations (singlicate at each concentration) was normalized as a percentage of control based on the formula:
# % of Control=100×(A−B)/(C−B)
# where A is MF from wells containing test compound and C5a, B is MF from wells without C5a (background MF from unstimulated samples) and C is MF from wells containing only C5a (maximum MF). Inhibition curves and IC50 values (test compound concentrations which produce 50% inhibition) were determined using the Prism version 5 software (GraphPad). HWB was also stimulated with 11 different concentrations of C5a to construct a responsive curve and to obtain EC50 value (the concentration of C5a that gives half-maximal response) and curve slope using the Prism version 5 software. Kb (nM) was then calculated using the equation described by Leff and Dougal (TIPS 1993 14:110-112).
# [3] = the molecule shown is the open-chain precursor, amide bond, 18-membered ring
Compound,Kb (C5a receptor [1]) [nM],Kb (C5a receptor [2]) [nM],"ring closure, crude yield [3] [%]",further results
"N=C(N)NCCC[C@@H]1NC(=O)[C@H](Cc2c[nH]c3ccccc23)NC(=O)[C@@H](C[C@H]2CC[C@@H](O)CC2)NC(=O)[C@@H]2C[C@H](NCC(=O)O)CN2C(=O)[C@@H](NC(=O)[C@H](Cc2ccccc2)NCC(=O)O)CCCNC1=O [Example 12, ((31R,6S,9S,15S,19S,20aS)-6-((1H-indol-3-yl)methyl)-15-((S)-2-((carboxymethyl)amino)-3-phenylpropanamido)-9-(3-guanidinopropyl)-3-(((1s,4S)-4-hydroxycyclohexyl)methyl)-1,4,7,10,16-pentaoxoicosahydropyrrolo[1,2-a][1,4,7,10,13]pentaazacyclooctadecin-19-yl)glycine]",1.3,32.6,,
"N=C(N)NCCC[C@@H]1NC(=O)[C@H](Cc2n[nH]c3ccccc23)NC(=O)[C@@H](C[C@H]2CC[C@@H](O)CC2)NC(=O)[C@@H]2C[C@@H](O)CN2C(=O)[C@@H](NC(=O)[C@H](Cc2ccccc2)NCC(=O)O)CCCNC1=O [Example 16, ((S)-1-(((31R,6S,9S,15S,19R,20aS)-6-((1H-indazol-3-yl)methyl)-9-(3-guanidinopropyl)-19-hydroxy-3-(((1s,4S)-4-hydroxycyclohexyl)methyl)-1,4,7,10,16-pentaoxoicosahydropyrrolo[1,2-a][1,4,7,10,13]pentaazacyclooctadecin-15-yl)amino)-1-oxo-3-phenylpropan-2-yl)glycine]",6.5,75.2,,
"CCc1ccc2c(C[C@@H]3NC(=O)[C@@H](C[C@H]4CC[C@@H](O)CC4)NC(=O)[C@@H]4C[C@@H](O)CN4C(=O)[C@@H](NC(=O)[C@H](Cc4ccccc4)NCC(=O)O)CCCNC(=O)[C@H](CCCNC(=N)N)NC3=O)c[nH]c2c1 [Example 17, ((S)-1-(((31R,6S,9S,15S,19R,20aS)-6-((6-ethyl-1H-indol-3-yl)methyl)-9-(3-guanidinopropyl)-19-hydroxy-3-(((1s,4S)-4-hydroxycyclohexyl)methyl)-1,4,7,10,16-pentaoxoicosahydropyrrolo[1,2-a][1,4,7,10,13]pentaazacyclooctadecin-15-yl)amino)-1-oxo-3-phenylpropan-2-yl)glycine]",29.7,234,,
H-Hyp(CH2CO2tBu)-dAla(3-(cis-4-hydroxycyclohexyl))-Trp(Boc)-Arg(Pbf)-Orn(Nα-[Boc-N(CH2CO2tBu)-Phe]; chain through Nδ)-OH?,,,83,
"H-Hyp(tBu)-dAla(3-(cis-4-hydroxycyclohexyl))-Ala(3-(1-Boc-1H-pyrrolo[2,3-b]pyridin-3-yl))-Arg(Pbf)-Orn(Nα-[Boc-N(CH2CO2tBu)-Phe]; chain through Nδ)-OH",,,100,
H-Hyp(tBu)-dAla(3-(cis-4-hydroxycyclohexyl))-Ala(3-(4-methyl-1H-pyrazol-1-yl))-Arg(Pbf)-Orn(Nα-[Boc-N(CH2CO2tBu)-Phe]; chain through Nδ)-OH,,,48,
H-Hyp(tBu)-dAla(3-(cis-4-hydroxycyclohexyl))-Trp(Boc)-Arg(Pbf)-Orn(Nα-[N-(CH2CO2tBu)-MePhe]; chain through Nδ)-OH,,,100,
H-Pro((4S)-N(Boc)CH2CO2tBu)-dAla(3-(cis-4-hydroxycyclohexyl))-Trp(Boc)-Arg(Pbf)-Orn(Nα-[Boc-N(CH2CO2tBu)-Phe]; chain through Nδ)-OH,,,100,
H-Pro((4S)-NHBoc)-dAla(3-(cis-4-hydroxycyclohexyl))-Trp(Boc)-Arg(Pbf)-Orn(Nα-[Boc-N(CH2CO2tBu)-Phe]; chain through Nδ)-OH,,,,"ring closure, crude yield ([3]; HATU/NMM, THF/DMF): 100%"
"H-Pro-dAla(3-(cis-4-hydroxycyclohexyl))-Ala(3-(1-Boc-1H-pyrrolo[2,3-b]pyridin-3-yl))-Arg(Pbf)-Orn(Nα-[Boc-N(CH2CO2tBu)-Phe]; chain through Nδ)-OH",,,100,
